The source of these data is patent publication US20240218022A1, “ANTI-VISTA MACROCYCLIC PEPTIDES AND COMPOSITIONS” (BRISTOL-MYERS SQUIBB COMPANY, priority 2022, published 2024).

Like-named read-outs stand apart in the source and are kept apart here. Starred links: 1 amine or outer side, 2 acyl side, 3 side chain; linkers in the order of their positions; H or OH if unused. Positions of bridges follow the written chain, without caps; N, C: chain ends. Non-standard residues stand in square brackets, D forms with d. Residues, ends and D or L forms follow the SMILES beside them. ξ: configuration not given here. Phe(3-Me) = Cc1cccc(C[C@H](N)C(=O)O)c1; γGlu = O=C(O)[C@H](CCC(=O)[*:2])N[*:1]; 2Nal = N[C@@H](Cc1ccc2ccccc2c1)C(=O)O; βAsp = O=C(O)[C@H](CC(=O)[*:2])N[*:1]; Ahp(2) = CCCCC[C@H](N)C(=O)O; NMeNle = CCCC[C@H](NC)C(=O)O; Tle = CC(C)(C)[C@H](N)C(=O)O; NHexGly = CCCCCCNCC(=O)O; Nle = CCCC[C@H](N)C(=O)O; Orn = NCCC[C@H](N)C(=O)O; Aun = NCCCCCCCCCCC(=O)O; AEEA = NCCOCCOCC(=O)O; ξP = O=C(O)C1CCCN1

This assay deals with T1, mouse VISTA (mVISTA) (Mus musculus, UniProt Q9D659).
T1 construct: expressed in transfected cells; host or cells: Human embryonic kidney 293T cells
T1 sequence (Q9D659 33-308): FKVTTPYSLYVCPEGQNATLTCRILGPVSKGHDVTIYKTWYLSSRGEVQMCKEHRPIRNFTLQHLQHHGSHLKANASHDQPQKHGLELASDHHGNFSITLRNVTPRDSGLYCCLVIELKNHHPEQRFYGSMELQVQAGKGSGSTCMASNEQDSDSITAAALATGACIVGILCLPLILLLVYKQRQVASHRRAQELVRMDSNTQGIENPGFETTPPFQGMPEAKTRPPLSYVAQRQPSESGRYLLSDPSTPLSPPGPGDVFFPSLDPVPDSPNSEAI
The assay is described as follows: Cell-Based Binding High-Content Assay For mVISTA (HC CBA mVISTA). An outline of the steps:
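Competition of compound with a biotinylated peptide (final 2 nM, 30 min at RT) for binding to mVISTA on 293T cells, run under no-wash or wash (1 h compound preincubation then removal) formats. Readout by Alexa 647–streptavidin imaging on a high-content platform; four-parameter logistic fit gave IC50.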

The mark [1] stands for this setting: cell-based binding high-content assay, mVISTA, read-out: HC CBA miPrISTA IC50.

In the case of `CCCCCCN1CC(=O)N[C@@H](Cc2ccc(O)cc2)C(=O)N[C@@H](C)C(=O)N[C@@H](CC(N)=O)C(=O)N[C@@H](CCCNC(=N)N)C(=O)N(C)[C@@H](CCCC)C(=O)N[C@@H](CCCCC)C(=O)N2CCC[C@H]2C(=O)N[C@@H](C(C)(C)C)C(=O)N[C@@H](CC(=O)O)C(=O)N[C@H](C(=O)N[C@@H](CC(=O)NCCOCCOCC(=O)N[C@@H](CC(=O)O)C(=O)NCCOCCOCC(=O)NCCCCCCCCCCC(=O)O)C(=O)O)CSCC(=O)N[C@@H](Cc2ccccc2)C(=O)N[C@@H](Cc2ccc(O)cc2)C(=O)N[C@@H](CC(=O)O)C1=O` [compound 2096] ({CH2CO}-FYD[NHexGly]YANR[NMeNle][Ahp(2)]P[Tle]DC[βAsp][AEEA]D[AEEA][Aun]-OH; thioether N-14), the concentration for half-maximal inhibition (IC50) under setting [1] stood at 20 nM. Consider `CCCCCCN1CC(=O)N[C@@H](Cc2ccc(O)cc2)C(=O)N[C@@H](C)C(=O)N[C@@H](CC(N)=O)C(=O)N[C@@H](CCCN)C(=O)N(C)[C@@H](CCCC)C(=O)N[C@@H](CCCCC)C(=O)N2CCC[C@H]2C(=O)N[C@@H](C(C)(C)C)C(=O)N[C@@H](CC(=O)O)C(=O)N[C@H](C(=O)N[C@@H](CC(=O)NCCOCCOCC(=O)N[C@@H](CC(=O)O)C(=O)NCCOCCOCC(=O)NCCCCCCCCCCC(=O)O)C(=O)O)CSCC(=O)N[C@@H](Cc2ccccc2)C(=O)N[C@@H](Cc2c[nH]c3ccccc23)C(=O)N[C@@H](CC(=O)O)C1=O` [compound 2097] ({CH2CO}-FWD[NHexGly]YAN[Orn][NMeNle][Ahp(2)]P[Tle]DC[βAsp][AEEA]D[AEEA][Aun]-OH; thioether N-14), for which the IC50 under setting [1] turned out to be 22.2 nM. `CCCCCCN1CC(=O)N[C@@H](Cc2ccc(O)cc2)C(=O)N[C@@H](C)C(=O)N[C@@H](CC(N)=O)C(=O)N[C@@H](CCCNC(=N)N)C(=O)N(C)[C@@H](CCCC)C(=O)N[C@@H](CCCCC)C(=O)N2CCC[C@H]2C(=O)N[C@@H](C(C)(C)C)C(=O)N[C@@H](CO)C(=O)N[C@H](C(=O)N[C@@H](CC(=O)NCCOCCOCC(=O)N[C@@H](CC(=O)O)C(=O)NCCOCCOCC(=O)NCCCCCCCCCCC(=O)O)C(=O)O)CSCC(=O)N[C@@H](Cc2ccccc2)C(=O)N[C@@H](Cc2c[nH]c3ccccc23)C(=O)N[C@@H](CC(=O)O)C1=O` [compound 2098] ({CH2CO}-FWD[NHexGly]YANR[NMeNle][Ahp(2)]P[Tle]SC[βAsp][AEEA]D[AEEA][Aun]-OH; thioether N-14): the IC50 under setting [1] amounted to 36.6 nM. With `CCCCCCN1CC(=O)N[C@@H](Cc2ccc(O)cc2)C(=O)N[C@@H](CCCC)C(=O)N[C@@H](CC(=O)O)C(=O)N[C@@H](CCCNC(=N)N)C(=O)N[C@@H](CC(C)C)C(=O)N[C@@H](CCCCC)C(=O)N2CCCC2C(=O)N[C@@H](C(C)C)C(=O)N[C@@H](CC(N)=O)C(=O)N[C@H](C(=O)NCC(=O)N[C@@H](CC(=O)NCCOCCOCC(=O)N[C@@H](CC(=O)O)C(=O)NCCOCCOCC(=O)NCCCCCCCCCCC(=O)O)C(=O)O)CSCC(=O)N[C@@H](Cc2ccccc2)C(=O)N[C@@H](Cc2ccc(O)cc2)C(=O)N[C@@H](CC(=O)O)C1=O` (stereo partly drawn) [compound 2108] ({CH2CO}-FYD[NHexGly]Y[Nle]DRL[Ahp(2)][ξP]VNCG[βAsp][AEEA]D[AEEA][Aun]-OH; thioether N-14), the half-inhibitory concentration (IC50) (read-out: HC CBA mVISTA IC50) came out at 14.4 nM. On the same count and under the same terms, the result for `CCCCCCN1CC(=O)N[C@@H](Cc2ccc(O)cc2)C(=O)N[C@@H](CCCC)C(=O)N[C@@H](CC(N)=O)C(=O)N[C@@H](CCCNC(=N)N)C(=O)N[C@@H](CC(C)C)C(=O)N[C@@H](CCCCC)C(=O)N2CCC[C@@H]2C(=O)N[C@@H](C(C)C)C(=O)N[C@@H](CO)C(=O)N[C@H](C(=O)NCC(=O)N[C@@H](CCC(=O)NCCOCCOCC(=O)N[C@@H](CC(=O)O)C(=O)NCCOCCOCC(=O)NCCCCCCCCCCC(=O)O)C(=O)O)CSCC(=O)N[C@@H](Cc2ccc3ccccc3c2)C(=O)N[C@@H](Cc2ccc(O)cc2)C(=O)N[C@@H](CC(=O)O)C1=O` [compound 2123] ({CH2CO}-[2Nal]YD[NHexGly]Y[Nle]NRL[Ahp(2)][dP]VSCG[γGlu][AEEA]D[AEEA][Aun]-OH; thioether N-14) reads 17.9 nM; that for `CCCCCCN1CC(=O)N[C@@H](Cc2ccc(O)cc2)C(=O)N[C@@H](CCCC)C(=O)N[C@@H](CC(N)=O)C(=O)N[C@@H](CCCNC(=N)N)C(=O)N(C)[C@@H](CCCC)C(=O)N[C@@H](CCCCC)C(=O)N2CCCC2C(=O)N[C@@H](C(C)C)C(=O)N[C@@H](CC(=O)O)C(=O)N[C@H](C(=O)NCC(=O)N[C@@H](CCC(=O)NCCOCCOCC(=O)N[C@@H](CC(=O)O)C(=O)NCCOCCOCC(=O)NCCCCCCCCCCC(=O)O)C(=O)O)CSCC(=O)N[C@@H](Cc2ccc3ccccc3c2)C(=O)N[C@@H](Cc2c[nH]c3ccccc23)C(=O)N[C@@H](CC(=O)O)C1=O` (stereo partly drawn) [compound 2125] ({CH2CO}-[2Nal]WD[NHexGly]Y[Nle]NR[NMeNle][Ahp(2)][ξP]VDCG[γGlu][AEEA]D[AEEA][Aun]-OH; thioether N-14), 19.6 nM. As to `CCCCCCN1CC(=O)N[C@@H](Cc2ccc(O)cc2)C(=O)N[C@@H](CCCC)C(=O)N[C@@H](CC(N)=O)C(=O)N[C@@H](CCCNC(=N)N)C(=O)N(C)[C@@H](CCCC)C(=O)N[C@@H](CCCCC)C(=O)N2CCC[C@H]2C(=O)N[C@@H](C(C)C)C(=O)N[C@@H](CC(=O)O)C(=O)N[C@H](C(=O)NCCOCCOCC(=O)N[C@@H](CCC(=O)NCCOCCOCC(=O)NCCCCCCCCCCC(=O)O)C(=O)O)CSCC(=O)N[C@@H](Cc2ccc3ccccc3c2)C(=O)N[C@@H](Cc2c[nH]c3ccccc23)C(=O)N[C@@H](CC(=O)O)C1=O` [compound 2214] ({CH2CO}-[2Nal]WD[NHexGly]Y[Nle]NR[NMeNle][Ahp(2)]PVDC[AEEA][γGlu][AEEA][Aun]-OH; thioether N-14), where the note is “read-out: HC CBA mVISTA IC50”, the IC50 was found to be 32.7 nM. On the same count and under the same terms, in the case of `CCCCCCN1CC(=O)N[C@@H](Cc2ccc(O)cc2)C(=O)N[C@@H](CCCCC)C(=O)NCC(=O)N[C@@H](CCCNC(=N)N)C(=O)N[C@@H](CC(C)C)C(=O)N[C@@H](CCCCC)C(=O)N2CCC[C@H]2C(=O)N[C@@H](C(C)C)C(=O)N[C@@H](CO)C(=O)N[C@H](C(=O)NCCOCCOCC(=O)N[C@@H](CCC(=O)NCCOCCOCC(=O)NCCCCCCCCCCC(=O)O)C(=O)O)CSCC(=O)N[C@@H](Cc2ccccc2)C(=O)N[C@@H](Cc2ccc(O)cc2)C(=O)N[C@@H](CC(=O)O)C1=O` [compound 2215] ({CH2CO}-FYD[NHexGly]Y[Ahp(2)]GRL[Ahp(2)]PVSC[AEEA][γGlu][AEEA][Aun]-OH; thioether N-14) it was 28.3 nM; in that of `CCCCCCN1CC(=O)N[C@@H](Cc2ccc(O)cc2)C(=O)N[C@@H](CCCC)C(=O)NCC(=O)N[C@@H](CCCNC(=N)N)C(=O)N[C@@H](CC(C)C)C(=O)N[C@@H](CCCCC)C(=O)N2CCC[C@H]2C(=O)N[C@@H](C(C)C)C(=O)N[C@@H](CC(=O)O)C(=O)N[C@H](C(=O)NCCOCCOCC(=O)N[C@@H](CCC(=O)NCCOCCOCC(=O)NCCCCCCCCCCC(=O)O)C(=O)O)CSCC(=O)N[C@@H](Cc2cccc(C)c2)C(=O)N[C@@H](Cc2ccc(O)cc2)C(=O)N[C@@H](CC(=O)O)C1=O` [compound 2216] ({CH2CO}-[Phe(3-Me)]YD[NHexGly]Y[Nle]GRL[Ahp(2)]PVDC[AEEA][γGlu][AEEA][Aun]-OH; thioether N-14), 24.3 nM.

In general, IC50 refers to the concentration that gives 50% inhibition.
